According to patent US5652222A, “Selective inhibition of leukemic cell proliferation by bcr-abl antisense oligonucleotides” (Temple University-of The Commonwealth System of Higher …, priority 1993, dated 1997):
Where “and” joins values, the source holds several entries; their conditions need not be identical. Equal values may be shown once.

Experiments:
[1] = test system: Philadelphia chromosome-positive blast cells of CML patients in blast crisis, L-6 (b2a2) type junction; experiment: Colony formation of CML blast crisis patient cells expressing the b2a2 (L-6) junction; format: cell-based, human; conditions: for Number of Colonies, Antisense-treated: 40 μg/ml at start, 20 μg/ml 18 h later; for % Inhibition: number of colonies vs untreated
Method: Leukemia cells were obtained from the marrow of the posterior iliac crest of five CML patients in blast crisis. The cells were diluted 1:2 in Iscove's modified Dulbecco medium (IMDM) to form a cell suspension. Philadelphia chromosome-positive blast cells were isolated by Ficoll-Hypaque density gradient sedimentation to remove non-mononuclear cells. Accordingly, the bone marrow cell suspension was gently overlayed on a Histopaque density gradient (Sigma Chemical Co., St. Louis, Mo.) in a 2:1 ratio, and then spun down for 30 min. at 1500 rpm and 18° C. Cells remaining in the interface layer after centrifugation were collected using a Pasteur pipet, and washed with IMDM at 1000 rpm and […] for 10 min.
Cells plated into methyl cellulose semisolid media after 7-11 days of culture were recovered from the medium. Total RNA was isolated according to the procedure of Chomczynski et al, Anal. Biochem. 162, 156-159 (1987). The RNA ([…]) isolated from one patient having particularly exuberant cell growth was annealed with the 3' RT-PCR primer GCTTCACACC ATTCCCCATTGT (SEQ ID NO:10) complementary to 22 nucleotides of c-abl exon 2 for 30 minutes at 37° C. Following annealing of the 3' primer, the RNA was reverse transcribed with 500 units of Moloney murine leukemia virus reverse transcriptase at 37° C. for 1 hour. The reaction was stopped and the mixture diluted in 1 x Thermus aquaticus (Taq) polymerase buffer. A 5' primer, the 22 nucleotide oligomer CACAGCATTCCGCTGACCATCA (SEQ ID NO: 11) complementary to bcr exon 2 and additional c-abl exon 2 3' primer were added to a final concentration of 2 ng/μl each with 2.5 units of Taq polymerase for amplification of the cDNA fragments. Sixty cycles of PCR were performed in a Perkin Elmer Thermal Cycler by annealing at 55° C., synthesizing at 72° C. and denaturing at 95° C. The amplification product, corresponding to the b2a2 junction, was thereafter separated on a 2% agarose gel. The band containing the bcr-abl fragment was cut out and cleaned according to a standard technique utilizing a GENE-CLEAN™ kit (Bio 101, Inc.), cloned by blunt end ligation in the BLUESCRIPT SK vector (Stratagene Cloning Systems) linearized by SMA I digestion. Several individual clones were then sequenced using the SEQUENASE™ version 2.0 enzyme (United States Biochemical Corp., Cleveland, Ohio), according to the sequence protocol recommended by the manufacturer. Accordingly, the denatured bcr-abl DNA fragments were annealed with specific primers which flank the cloning site in the BLUESCRIPT SK vector, in the presence of SEQUENASE™ reaction buffer for 15 min. at 37° C. The primer-annealed fragments were incubated at room temperature with SEQUENASE™ version 2.0 enzyme and α-S^35 dAT at 37° C. Subsequently, labelled template-primer complexes were transferred to tubes containing A, T, C and G nucleotides (one nucleotide per tube) and incubated 5-30 min. at 37° C. The samples were then loaded on a previously prepared acrylamide gel, and run for approximately 10 hours. The sequencing gel was dryed, and the film exposed O/N. Sequence analysis of several of the individual clones identified the bcr-abl junction as having the cDNA sequence shown in FIG. 1 (SEQ ID NO:1). The arrow in the figure indicates the bcr-abl breakpoint junction, and the box delineates the 18 nucleotides corresponding to the junction, which forms a preferred target sequence for hybridization of antisense oligomer. The junction corresponds precisely to the L-6 type breakpoint reported by Shtivelman et al., Cell 47, 277 (1986), in which the bcr exon 2 is fused to c-abl exon 2.
In a similar manner, L-6 type junctions were identified in the remaining CML blast crisis patients by hybridization of RT-PCR amplification products derived from blast crisis CML RNA using a synthetic 18-mer GAAGGGCTTC TTCCTTAT (SEQ ID NO:3) specific for the 18-nucleotide target sequence of the L-6 bcr-abl junction. […]

[2] = test system: BV173 cells; experiment: Clonogenic assay of tissues of leukemic SCID mice; format: in vivo, SCID mice (human leukemic cells)
Method: A second assay for leukemic disease comprised a clonogenic assay in semisolid medium. […] By contrast, BV173 cells formed numerous, rapidly growing colonies. To rule out the possibility that the presence of BV173 cells permitted the growth of murine progenitors, mixing experiments were carried out.
To determine whether synthetic phosphorothioate oligodeoxynucleotides targeted against the bcr-abl junction of […] cells would modify the disease process in SCID mice. SCID mice were injected with 10^6 BV173 cells. The mice then received 1 mg of sense (ATCAATAAGG AAGCCCTTCAGCG, SEQ ID NO:34) or antisense ([…] ATTGAT, SEQ ID NO:29) b2/a2 bcr-abl phosphorothioate oligodeoxynucleotides (pyrogen leven <1 Eu/mg; 0.2 ml in Iscove modified Dulbecco medium in 5-10 seconds) intravenously for each of 9 consecutive days, beginning either 7 or 21 days after introducing 10^6 BV173 cells. Control mice received the diluent (iscove's modified Dulbecco medium) only. These time points approximate distinct disease stages in humans.
10^5 cells were plated in duplicate in 35×10 mm tissue culture dishes (Nunc, Inc., Naperville, Ill.) in HCC-4230 medium (Terry Fox Lab., Vancouver, Canada) supplemented with 2.5 mM L-glutamine, and allowed to grow for 12 days. Plates were scanned with an inverted microscope and total colony number was determined. The results are shown in FIG. 9 (C, untreated mouse; S, sense-treated mouse, AS, antisense-treated mouse).

[3] = 1 mg/day i.v. x9 from day +7, killed 26 days after last treatment (6 weeks)
[4] = 1 mg/mouse/day x9 from day +21, 26 days after treatment (8 weeks)

| Substance | colonies of blast cells formed ([1]; 10 days in semi-solid culture (FIG. 2)) | Number of Colonies, Antisense-treated ([1]; Table 1, patient 1, untreated 450 ± 64) [colonies] | Number of Colonies, Antisense-treated ([1]; Table 1, patient 2, untreated 324 ± 18) [colonies] | % Inhibition ([1]; Table 1, patient 3) [%] | Number of Colonies, Antisense-treated ([1]; Table 1, patient 4, untreated 212 ± 15) [colonies] | Number of Colonies, Antisense-treated ([1]; Table 1, patient 5, untreated 380 ± 16) [colonies] | % Inhibition ([1]; Table 1, patient 5) [%] | inhibition of colony formation ([1]; five L-6 type junction patients, repeated experiments) [%] | leukemic colonies, bone marrow and spleen [2, 3] | leukemic colonies, peripheral blood leukocytes [2, 3] | leukemic colonies, bone marrow ([2]; 1 mg/mouse/day i.v. x9 from day +7, killed 12 days after last treatment (4 weeks), untreated 353±52) [colonies] | leukemic colonies, peripheral blood mononuclear cells ([2]; 1 mg/mouse/day x9 from day +21, 12 days after last treatment (6 weeks), untreated 11.0±8.5) [colonies] | leukemic colonies, spleen ([2]; 1 mg/mouse/day x9 from day +21, 12 days after last treatment (6 weeks), untreated 80.5±12.0) [colonies] | leukemic colonies, bone marrow ([2]; 1 mg/mouse/day x9 from day +21, 12 days after last treatment (6 weeks), untreated 575.5±83.8) [colonies] | leukemic colonies, bone marrow [2, 4] [colonies] | leukemic colonies, peripheral blood [2, 4] | leukemic colonies, spleen [2, 4] [colonies] |
| --- | --- | --- | --- | --- | --- | --- | --- | --- | --- | --- | --- | --- | --- | --- | --- | --- | --- |
| SEQ ID NO:3: synthetic 18-mer GAAGGGCTTC TTCCTTAT specific for the 18-nucleotide target sequence of the L-6 bcr-abl junction (antisense GAAGGGCTTCTTCCTTAT; chemistry not given here) | very few colonies, with a much smaller number of cells | 112 ± 18 | 62 ± 8 | 90 | 80 ± 8 | 70 ± 8 | 82 | 60 to 90 | – | – | – | – | – | – | – | – | – |
| SEQ ID NO:34: phosphorothioate sense sequence ATCAATAAGGAAGCCCTTCAGCG (23-mer b2a2 sense) (sense ATCAATAAGGAAGCCCTTCAGCG; all phosphorothioate, sugars by position and methylation of C not given here) | – | – | – | – | – | – | – | – | numerous leukemic colonies | A few colonies | 380±25 | 14.5±4.9 | 116.0±29.7 | 668.5±59.1 | 839.5±41.7 | 51.0±41.7 colonies and 51.0±14.1 colonies | 548.5±128.0 |
